Test results as given in patent publication US20170020909A1, “METHODS OF TREATING GLAUCOMA USING AMP-ACTIVATED PROTEIN KINASE (AMPK) ACTIVATORS” (Massachusetts Eye and Ear Infirmary, priority 2014, published 2017).
Entries after “also recorded” stand apart in the source; their conditions may differ.

Legend:
[1] = test system: primary cultured human TM cells; test: Phalloidin (F-actin) immunofluorescent staining and morphology of primary cultured human TM cells; type: cell-based
Procedure: FIG. 6. […] Human TM cells were plated on 8-well slides, treated as in FIG. 3, and then stained with phalloidin (F-actin) antibody. Nuclei were stained with DAPI. Representative immunofluorescent images shown above (n=3). Scale bar, 50 μm. Primary human trabecular meshwork (TM) cells were isolated, in accordance with the Declaration of Helsinki, and maintained in culture as described previously.^63 Independent primary human TM cell lines were generated from donors ranging in age from 35 to 72 years and no known history of ocular disease. Cell cultures were maintained, unless otherwise stated, in Dulbecco's modified eagle medium (Life Technologies, Grand Island, N.Y.) containing 20% fetal bovine serum, 1% L-glutamine (2 mM), and gentamicin (0.1 mg/ml) at 37° C. in a 10% CO2 atmosphere. Only TM cells from third through fifth passage were used. All experiments were performed using at least three different primary human TM cell lines. TM cells in 8 well-slides were fixed for 30 minutes with 4% paraformaldehyde in PBS (pH 7.4) at 4° C., then washed in PBS for 10 minutes twice at RT. Cells were permeabilized with 0.2% Triton-100 in PBS for 5 min and then washed in PBS and blocked in 3% bovine serum albumin (BSA) in PBS for 1 hr at RT. […] Nuclei were stained with TO-DAPI (Invitrogen), and labeled tissues were analyzed by fluorescent light microscopy using a Zeiss Observer3.1.

[2] = test system: perfused ex vivo human anterior segments; test: IOP in constant-flow-perfused ex vivo human anterior segments; settings: 2.5 μL of 200 mM AICAR in 1 mL of ex vivo media, by day 7, mean±SEM, n=3
Excerpt: The effects of AICAR on IOP in perfused constant flow ex vivo human anterior segments was examined using well-established and validated methods (see, e.g., Oh et al., Invest. Ophthalmol. Vis. Sci. 2013; 54:3309-19; Ethier et al., Invest. Ophthalmol. Vis. Sci. 2004; 45:1863-70). Briefly, all donor pairs of eyes were obtained from National Disease Research Interchange (NDRI, Philadelphia, Pa.) according to the provisions of the Declaration of Helsinki for research involving human tissue. Eyes were obtained within 24 hours after death. No donors were known to have a history of glaucoma or other ocular disorder. Human perfused anterior segment cultures were prepared by scoring the surface of the eye around ora serrata with a surgical blade, and the full-thickness incision was completed around the eye with scissors. The vitreous, lens, and iris were removed. […] IOP was monitored with a pressure transducer (Argon Medical Devices, Athens, Tex.) and were recorded with an automated computerized system (National Instruments, Austin, Tex.) every second and averaged each hour. […] Effects of AICAR treatment on IOP are expressed as the percentage change in IOP (compared to baseline). Values are expressed as mean±SEM, and paired two-tailed student t-tests are applied to determine significance of difference in IOP between control and experimental groups at selected time intervals. […]

NC(=O)c1ncn([C@@H]2O[C@H](CO)[C@@H](O)[C@H]2O)c1N [AICAR, 5-Aminoimidazole-4-carboxamide riboside]
cell morphology ([1]; 0.5 mM AICAR, cultured TM cells (data not shown)): narrower cell bodies | F-actin staining and actin stress fiber formation ([1]; AICAR, basal and TGF-β2 stimulatory conditions): decreased F-actin staining and actin stress fiber formation; also recorded: decreased F-actin cytoskeletal staining, and fewer actin stress fibers | mean decrease in IOP compared with paired opposite eye controls [2]: 18.54±1.78%
